From patent publication US20240246940A1, “HETEROARYL DERIVATIVE COMPOUND AND USE THEREOF” (VORONOI INC., priority 2021, published 2024)
Read-outs that look alike come from different tables or passages of the source.

Experiments:
Assay type in all cases: cell-based
[1] = tested on: HaCaT cells (EGFR expressing cell line); assay: HaCaT cell proliferation inhibitory activity (CellTiter-Glo, 72 hours)
Outline: (§1)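 Three independent repeats measured growth inhibition across 11 concentrations. The top final concentration was 10 μM for SK-BR-3 and BT-474, 5 μM for N-87 and 45 μM for HaCaT. Growth relative to control, read by luminescence, yielded GI50.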

[2] = tested on: BT-474 cells (HER2 overexpressing cell line); assay: BT-474 cell proliferation inhibitory activity (CellTiter-Glo, 120 hours)
Protocol: To evaluate the cell proliferation inhibitory activity of the compound according to the present invention on HER2 and EGFR kinases, the following method was performed using HER2 overexpressing cell lines (SK-BR-3, BT-474, and N-87) and EGFR expressing cell line (HaCaT).
McCOY'S 5A supplemented with 10% FBS was used for SK-BR-3 cells, RPMI-1640 medium supplemented with 20% FBS was used for BT-474 cancer cells, and RPMI-1640 medium supplemented with 10% FBS was used for N-87 cancer cells. DMEM supplemented with 10% FBS was used for HaCaT cells.
For SK-BR-3 cells, 5000 cells were aliquoted into each well of a white clear bottom 96 well plate (Corning) 48 hours before treatment with the compounds of Examples. For BT-474 cells, 5000 cells were aliquoted into each well of a white clear bottom 96 well plate (Corning) 48 hours before treatment with the compounds of Examples. For N-87 cells, 5000 cells were aliquoted into each well of a white clear bottom 96 well plate (Corning) 24 hours before treatment with the compounds of Examples. For HaCaT cells, 3000 cells were aliquoted into each well of a white clear bottom 96 well plate (Corning) 24 hours before treatment with the compounds of Examples. For SK-BR-3 cells and BT-474 cells, the compounds of Examples were diluted in dimethyl sulfoxide (three-fold dilution, a total of 11 concentrations) and injected each in an amount of 1 μl to a final concentration of 0.2 nM to 10 μM. For N-87 cells, the compounds of Examples were diluted in dimethyl sulfoxide (five-fold dilution, a total of 11 concentrations) and injected each in an amount of 0.5 μl to a final concentration of […] to 5 μM. For HaCaT cells, the compounds of Examples were diluted in dimethyl sulfoxide (three-fold dilution, a total of 11 concentrations) and injected each in an amount of 0.5 μl to a final concentration of 0.8 nM to 45 μM. For the measurement of living cells, the cells were stored at room temperature for 10 minutes using CellTiter-Glo cell viability reagent (Promega) after a certain period of time (SK-BR-3: 120 hours, BT-474: 120 hours, N-87: 72 hours, and HaCaT: 72 hours) post treatment with the compounds of Examples, and the luminescence intensity thereof was measured using a reader (SynergyNeo, Biotek). Each test was repeated three times.
The result values were calculated as a cell growth rate (%) compared to those of the control group. A graph was created using the GraphPad Prism version 5.0 program, and GI50 values were calculated.

[3] = tested on: SK-BR-3 cells (HER2 overexpressing cell line); assay: SK-BR-3 cell proliferation inhibitory activity (CellTiter-Glo, 120 hours); details: Homo sapiens
Outline: as §1

| SMILES | GI50 ([1]; Homo sapiens) [nM] | GI50 ([2]; Homo sapiens) [nM] | GI50 [1] [nM] | GI50 [2] [nM] | GI50 [3] [nM] |
| --- | --- | --- | --- | --- | --- |
| C=CC(=O)N1CCC(F)(F)C(Oc2cc(OC)cc3ncnc(Nc4cc(-c5ccco5)ccc4OC)c23)C1 (stereo not drawn) [Example 53, 1-(4,4-difluoro-3-((4-((5-(furan-2-yl)-2-methoxyphenyl)amino)-7-methoxy-quinazolin-5-yl)oxy)piperidin-1-yl)prop-2-en-1-one] | ≤ 150 | ≤ 150 |  |  |  |
| C=CC(=O)N1CCC(Oc2cc3c(Nc4cc(-c5ccc(F)o5)ccc4OC)ncnc3cc2OC)CC1 [Example 88, 1-(4-((4-((5-(5-fluorofuran-2-yl)-2-methoxyphenyl)amino)-7-methoxy-quinazolin-6-yl)oxy)piperidin-1-yl)prop-2-en-1-one] | ≤ 150 | ≤ 150 |  |  |  |
| C=CC(=O)N1CCC(Oc2cc(OC)cc3ncnc(Nc4cc(-c5ccco5)ccc4OC)c23)C(F)(F)C1 (stereo not drawn) [Example 99, 1-(3,3-difluoro-4-((4-((5-(furan-2-yl)-2-methoxyphenyl)amino)-7-methoxy-quinazolin-5-yl)oxy)piperidin-1-yl)prop-2-en-1-one] |  |  | ≤ 150 | ≤ 150 |  |
| C=CC(=O)N1CCC(F)(F)C(Oc2cc(OC)cc3ncnc(Nc4cc(-c5ccc(F)cc5F)ccc4OC)c23)C1 (stereo not drawn) [Example 100, 1-(3-((4-((2′,4′-difluoro-4-methoxy-[1,1′-biphenyl]-3-yl)amino)-7-methoxy-quinazolin-5-yl)oxy)-4,4-difluoro-piperidin-1-yl)prop-2-en-1-one] |  |  | ≤ 150 | ≤ 150 |  |
| C=CC(=O)N1CC[C@H](Oc2cc3c(Nc4cc(-c5ccc(F)cc5F)ccc4OC)ncnc3cc2OC)[C@@H](F)C1 [Example 152, 1-((3S,4S)-4-((4-((2′,4′-difluoro-4-methoxy-[1,1′-biphenyl]-3-yl)amino)-7-methoxy-quinazolin-6-yl)oxy)3-fluoropiperidin-1-yl)prop-2-en-1-one] | 150 to 1000 | 150 to 1000 |  |  |  |
| C=CC(=O)N1CCC(Oc2cc3c(Nc4cc(-c5ccc6c(c5)OCO6)ccc4OC)ncnc3cc2OC)CC1 [Example 153, 1-(4-((4-((5-(benzo[d][1,3]dioxol-5-yl)-2-methoxyphenyl)amino)-7-methoxy-quinazolin-6-yl)oxy)piperidin-1-yl)prop-2-en-1-one] | > 1000 | 150 to 1000 |  |  |  |
| C=CC(=O)N1[C@@H]2CC[C@H]1C[C@@H](Oc1cc3c(Nc4cc(-c5ccco5)ccc4OC)ncnc3cc1OC)C2 [Example 167, 1-((1R,3r,5S)-3-((4-((5-(furan-2-yl)-2-methoxyphenyl)amino)-7-methoxy-quinazolin-6-yl)oxy)-8-azabicyclo [3.2.1]octan-8-yl)prop-2-en-1-one] | ≤ 150 | ≤ 150 |  |  |  |
| C=CC(=O)N1[C@@H]2CC[C@H]1C[C@H](Oc1cc3c(Nc4cc(-c5ccco5)ccc4OC)ncnc3cc1OC)C2 [Example 172, 1-((1R,3s,5S)-3-((4-((5-(furan-2-yl)-2-methoxyphenyl)amino)-7-methoxy-quinazolin-6-yl)oxy)-8-azabicyclo [3.2.1]octan-8-yl)prop-2-en-1-one] | ≤ 150 | ≤ 150 |  |  |  |
| C=CC(=O)N1CC[C@H](Oc2cc3c(Nc4cc(-c5ccco5)ccc4OC)ncnc3cc2OC)[C@@H](F)C1 [Example 174, 1-((3S,4S)-3-fluoro-4-((4-((5-(furan-2-yl)-2-methoxyphenyl)amino)-7-methoxy-quinazolin-6-yl)oxy)piperidin-1-yl)prop-2-en-1-one] | ≤ 150 | ≤ 150 |  |  |  |
| C=CC(=O)N1CC[C@@H](Oc2cc3c(Nc4cc(-c5ccco5)ccc4OC)ncnc3cc2OC)[C@@H](F)C1 [Example 178, 1-((3S,4R)-3-fluoro-4-((4-((5-(furan-2-yl)-2-methoxyphenyl)amino)-7-methoxy-quinazolin-6-yl)oxy)piperidin-1-yl)prop-2-en-1-one] | ≤ 150 | ≤ 150 |  |  |  |
| C=CC(=O)N1CCC(Oc2cc3c(Nc4cc(-c5ccc(C#N)o5)ccc4OC)ncnc3cc2OC)CC1 [Example 183, 5-(3-((6-((1-acryloyl-piperidin-4-yl)oxy)-7-methoxy-quinazolin-4-yl)amino)-4-methoxyphenyl) furan-2-carbonitrile] | 150 to 1000 | 150 to 1000 |  |  |  |
| C=C(F)C(=O)N1CCC(Oc2cc3c(Nc4cc(-c5ccco5)ccc4OC)ncnc3cc2OC)CC1 [Example 184, 2-fluoro-1-(4-((4-((5-(furan-2-yl)-2-methoxyphenyl)amino)-7-methoxy-quinazolin-6-yl)oxy)piperidin-1-yl)prop-2-en-1-one] | 150 to 1000 | > 1000 |  |  |  |
| C=CC(=O)N1CCC(Oc2cc3c(Nc4c(OC)ccc(-c5ccco5)c4F)ncnc3cc2OC)CC1 [Example 185, 1-(4-((4-((2-fluoro-3-(furan-2-yl)-6-methoxyphenyl)amino)-7-methoxy-quinazolin-6-yl)oxy)piperidin-1-yl)prop-2-en-1-one] | ≤ 150 | ≤ 150 |  |  |  |
| COc1ccc(-c2ccc(F)cc2F)cc1Nc1ncnc2cc(OC)c(OC3CCN(C(=O)C(F)Cl)CC3)cc12 (stereo not drawn) [Example 187, 2-chloro-1-(4-((4-((2′,4′-difluoro-4-methoxy-[1,1′-biphenyl]-3-yl)amino)-7-methoxy-quinazolin-6-yl)oxy)piperidin-1-yl)-2-fluoroethan-1-one] | ≤ 150 | 150 to 1000 |  |  |  |
| COc1ccc(-c2ccco2)cc1Nc1ncnc2cc(OC)c(OC3CCN(C(=O)C(F)Cl)CC3)cc12 (stereo not drawn) [Example 188, 2-chloro-2-fluoro-1-(4-((4-((5-(furan-2-yl)-2-methoxyphenyl)amino)-7-methoxy-quinazolin-6-yl)oxy)piperidin-1-yl)ethan-1-one] | ≤ 150 | 150 to 1000 |  |  |  |
| C=CC(=O)N1CCC(Oc2cc3c(Nc4cc(-c5ccc6ccsc6c5)ccc4OC)ncnc3cc2OC)CC1 [Example 193, 1-(4-((4-((5-(benzo[b]thiophen-6-yl)-2-methoxyphenyl)amino)-7-methoxy-quinazolin-6-yl)oxy)piperidin-1-yl)prop-2-en-1-one] | ≤ 150 | 150 to 1000 |  |  |  |
| C=CC(=O)N1CCC(Oc2cc(OC)cc3ncnc(Nc4cc(-c5ccco5)ccc4OC)c23)C(F)(F)C1 (stereo not drawn) [Example 195, 1-(3,3-difluoro-4-((4-((5-(furan-2-yl)-2-methoxyphenyl)amino)-7-methoxy-quinazolin-5-yl)oxy)piperidin-1-yl)prop-2-en-1-one] | ≤ 150 | ≤ 150 |  |  |  |
| C=CC(=O)Nc1cc2c(Nc3cc(-c4ccco4)ccc3OC)ncnc2cc1OC [Example 289, N-(4-((5-(furan-2-yl)-2-methoxyphenyl)amino)-7-methoxyquinazolin-6-yl)acrylamide] | ≤ 150 |  |  |  | ≤ 150 |
| C=CC(=O)Nc1cc2c(Nc3cc(-c4ccoc4C)ccc3OC)ncnc2cc1OC [Example 290, N-(7-methoxy-4-((2-methoxy-5-(2-methylfuran-3-yl)phenyl)amino)quinazolin-6-yl)acrylamide] | ≤ 150 |  |  |  | 150 to 1000 |
| C=CC(=O)Nc1cc2c(Nc3cc(-c4ccco4)ccc3OC)c(C#N)cnc2cc1OCC [Example 291, N-(3-cyano-7-ethoxy-4-((5-(furan-2-yl)-2-methoxyphenyl)amino)quinolin-6-yl)acrylamide] | ≤ 150 |  |  |  | > 1000 |
| C=CC(=O)N1CC2(C1)CN(c1cc3c(Nc4cc(-c5ccco5)ccc4OC)ncnc3cc1OC)C(=O)O2 [Example 330, 2-acryloyl-7-(4-((5-(furan-2-yl)-2-methoxyphenyl)amino)-7-methoxyquinazolin-6-yl)-5-oxa-2,7-diazaspiro[3.4]octan-6-one] | 150 to 1000 |  |  |  | 150 to 1000 |
